Reference: PubChem BioAssay (NCI)
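Results reflect a 48-hour exposure of cells in 96-well plates to compound at five concentrations. TGI: total growth inhibition.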

What was measured:
Test in all cases: inhibition of tumour cell growth, NCI panel, 48 h
SF-539 CNS = tested on: SF-539 CNS
DU-145 prostate = tested on: DU-145 prostate
A549 NSCLC = tested on: A549 NSCLC
PC-3 prostate = tested on: PC-3 prostate
HCT-15 colon = tested on: HCT-15 colon
NCI-H460 lung = tested on: NCI-H460 lung
CCRF-CEM leukemia = tested on: CCRF-CEM leukemia
K-562 leukemia = tested on: K-562 leukemia
OVCAR-4 ovarian = tested on: OVCAR-4 ovarian
786-0 renal = tested on: 786-0 renal
MALME-3M melanoma = tested on: MALME-3M melanoma
A498 renal = tested on: A498 renal
RPMI-8226 leukemia = tested on: RPMI-8226 leukemia
HOP-62 NSCLC = tested on: HOP-62 NSCLC
NCI-H522 lung = tested on: NCI-H522 lung
SK-OV-3 ovarian = tested on: SK-OV-3 ovarian
HS 578T breast = tested on: HS 578T breast
SK-MEL-5 melanoma = tested on: SK-MEL-5 melanoma
RXF 393 renal = tested on: RXF 393 renal
SN12C renal = tested on: SN12C renal
CAKI-1 renal = tested on: CAKI-1 renal
MCF7 breast = tested on: MCF7 breast
U251 CNS = tested on: U251 CNS
SF-295 CNS = tested on: SF-295 CNS
HT29 colon = tested on: HT29 colon
HL-60(TB) leukemia = tested on: HL-60(TB) leukemia
TK-10 renal = tested on: TK-10 renal
UACC-257 melanoma = tested on: UACC-257 melanoma
OVCAR-3 ovarian = tested on: OVCAR-3 ovarian
M14 melanoma = tested on: M14 melanoma
SW-620 colon = tested on: SW-620 colon
HCC-2998 colon = tested on: HCC-2998 colon
NCI-H23 lung = tested on: NCI-H23 lung
EKVX NSCLC = tested on: EKVX NSCLC
NCI-H226 lung = tested on: NCI-H226 lung
MDA-MB-231 breast = tested on: MDA-MB-231 breast
BT-549 breast = tested on: BT-549 breast
IGROV1 ovarian = tested on: IGROV1 ovarian
SK-MEL-28 melanoma = tested on: SK-MEL-28 melanoma
COLO 205 colon = tested on: COLO 205 colon
UO-31 renal = tested on: UO-31 renal
HCT-116 colon = tested on: HCT-116 colon
OVCAR-5 ovarian = tested on: OVCAR-5 ovarian
SF-268 CNS = tested on: SF-268 CNS
SNB-75 CNS = tested on: SNB-75 CNS
KM12 colon = tested on: KM12 colon
MDA-N = tested on: MDA-N
ACHN renal = tested on: ACHN renal
LOX IMVI melanoma = tested on: LOX IMVI melanoma
HOP-92 NSCLC = tested on: HOP-92 NSCLC
OVCAR-8 ovarian = tested on: OVCAR-8 ovarian
NCI/ADR-RES ovarian = tested on: NCI/ADR-RES ovarian
SR leukemia = tested on: SR leukemia
T-47D breast = tested on: T-47D breast
MDA-MB-435 = tested on: MDA-MB-435
SNB-19 CNS = tested on: SNB-19 CNS
MOLT-4 leukemia = tested on: MOLT-4 leukemia
UACC-62 melanoma = tested on: UACC-62 melanoma
SK-MEL-2 melanoma = tested on: SK-MEL-2 melanoma

CC(C)/C(Cl)=N/OC(NC(=O)Nc1ccc(Cl)c(Cl)c1)(C(F)(F)F)C(F)(F)F
TGI (SF-539 CNS): 33.2 µM | TGI (DU-145 prostate): 31.9 µM | TGI (A549 NSCLC): 72.4 µM | TGI (PC-3 prostate): 27.3 µM | TGI (HCT-15 colon): 28.9 µM | TGI (NCI-H460 lung): 56.4 µM | TGI (CCRF-CEM leukemia): 5.71 µM | TGI (K-562 leukemia): 8.86 µM | TGI (OVCAR-4 ovarian): 25.8 µM | TGI (786-0 renal): 22.2 µM | TGI (MALME-3M melanoma): 4.55 µM | TGI (A498 renal): 34.7 µM | TGI (RPMI-8226 leukemia): 4.7 µM | TGI (HOP-62 NSCLC): 42.5 µM | TGI (NCI-H522 lung): 3.31 µM | TGI (SK-OV-3 ovarian): 32.3 µM | TGI (HS 578T breast): 99.4 µM | TGI (SK-MEL-5 melanoma): 29.3 µM | TGI (RXF 393 renal): 9.23 µM | TGI (SN12C renal): 33.9 µM | TGI (CAKI-1 renal): 3.61 µM | TGI (MCF7 breast): > 50.2 µM | TGI (U251 CNS): 33.2 µM | TGI (SF-295 CNS): 38.5 µM | TGI (HT29 colon): 53.7 µM | TGI (HL-60(TB) leukemia): 6.39 µM | TGI (TK-10 renal): 31.2 µM | TGI (UACC-257 melanoma): 25.9 µM | TGI (OVCAR-3 ovarian): 11.3 µM | TGI (M14 melanoma): 18.3 µM | TGI (SW-620 colon): 3.92 µM | TGI (HCC-2998 colon): 36 µM | TGI (NCI-H23 lung): 38.2 µM | TGI (EKVX NSCLC): 38.1 µM | TGI (NCI-H226 lung): 42.8 µM | TGI (MDA-MB-231 breast): 34.2 µM | TGI (BT-549 breast): 25.7 µM | TGI (IGROV1 ovarian): 35.2 µM | TGI (SK-MEL-28 melanoma): 35.3 µM | TGI (COLO 205 colon): 9.27 µM | TGI (UO-31 renal): 31.3 µM | TGI (HCT-116 colon): 19.7 µM | TGI (OVCAR-5 ovarian): 38.4 µM | TGI (SF-268 CNS): 39.4 µM | TGI (SNB-75 CNS): 31.3 µM | TGI (KM12 colon): 36.1 µM | TGI (MDA-N): 32.3 µM | TGI (ACHN renal): 24.9 µM | TGI (LOX IMVI melanoma): 14.7 µM | TGI (HOP-92 NSCLC): 29.7 µM | TGI (OVCAR-8 ovarian): 34.8 µM | TGI (NCI/ADR-RES ovarian): 31.7 µM | TGI (SR leukemia): > 100 µM | TGI (T-47D breast): 19.4 µM | TGI (MDA-MB-435): 33.8 µM | TGI (SNB-19 CNS): 41 µM | TGI (MOLT-4 leukemia): 12 µM | TGI (UACC-62 melanoma): 37.2 µM

c1ccc2c(c1)Sc1ccccc1N2CCCN1c2ccccc2Sc2ccccc21
TGI (SF-539 CNS): > 100 µM | TGI (DU-145 prostate): > 100 µM | TGI (A549 NSCLC): > 100 µM | TGI (PC-3 prostate): > 100 µM | TGI (HCT-15 colon): > 100 µM | TGI (NCI-H460 lung): > 100 µM | TGI (K-562 leukemia): > 100 µM | TGI (OVCAR-4 ovarian): > 100 µM | TGI (786-0 renal): 45.2 µM | TGI (MALME-3M melanoma): > 100 µM | TGI (A498 renal): > 100 µM | TGI (HOP-62 NSCLC): > 100 µM | TGI (NCI-H522 lung): > 100 µM | TGI (SK-OV-3 ovarian): > 100 µM | TGI (HS 578T breast): > 100 µM | TGI (SK-MEL-5 melanoma): > 100 µM | TGI (RXF 393 renal): > 100 µM | TGI (SN12C renal): > 100 µM | TGI (CAKI-1 renal): > 100 µM | TGI (MCF7 breast): > 100 µM | TGI (U251 CNS): > 100 µM | TGI (SF-295 CNS): > 100 µM | TGI (HT29 colon): > 100 µM | TGI (TK-10 renal): > 100 µM | TGI (UACC-257 melanoma): > 100 µM | TGI (OVCAR-3 ovarian): > 100 µM | TGI (M14 melanoma): > 100 µM | TGI (SW-620 colon): > 100 µM | TGI (HCC-2998 colon): > 100 µM | TGI (NCI-H23 lung): > 100 µM | TGI (EKVX NSCLC): > 100 µM | TGI (NCI-H226 lung): > 100 µM | TGI (MDA-MB-231 breast): > 100 µM | TGI (BT-549 breast): > 100 µM | TGI (IGROV1 ovarian): > 100 µM | TGI (SK-MEL-28 melanoma): > 100 µM | TGI (COLO 205 colon): > 100 µM | TGI (UO-31 renal): > 100 µM | TGI (HCT-116 colon): > 100 µM | TGI (OVCAR-5 ovarian): > 100 µM | TGI (SF-268 CNS): > 100 µM | TGI (KM12 colon): > 100 µM | TGI (MDA-N): > 100 µM | TGI (ACHN renal): > 100 µM | TGI (LOX IMVI melanoma): > 100 µM | TGI (HOP-92 NSCLC): > 100 µM | TGI (OVCAR-8 ovarian): > 100 µM | TGI (NCI/ADR-RES ovarian): > 100 µM | TGI (SR leukemia): > 100 µM | TGI (T-47D breast): > 100 µM | TGI (MDA-MB-435): > 100 µM | TGI (SNB-19 CNS): > 100 µM | TGI (MOLT-4 leukemia): > 100 µM | TGI (UACC-62 melanoma): > 100 µM

COC(=O)C1=C(C(=O)OC)C2(c3ccccc3)c3ccccc3C(=O)C1N2C1CCCCC1 (stereo not given)
TGI (SF-539 CNS): > 100 µM | TGI (DU-145 prostate): > 100 µM | TGI (A549 NSCLC): > 100 µM | TGI (PC-3 prostate): > 100 µM | TGI (HCT-15 colon): > 100 µM | TGI (NCI-H460 lung): > 100 µM | TGI (CCRF-CEM leukemia): > 100 µM | TGI (K-562 leukemia): > 100 µM | TGI (OVCAR-4 ovarian): > 100 µM | TGI (786-0 renal): > 100 µM | TGI (MALME-3M melanoma): > 100 µM | TGI (SK-MEL-2 melanoma): > 100 µM | TGI (A498 renal): > 100 µM | TGI (RPMI-8226 leukemia): 40.6 µM | TGI (HOP-62 NSCLC): > 100 µM | TGI (NCI-H522 lung): > 100 µM | TGI (SK-OV-3 ovarian): > 100 µM | TGI (HS 578T breast): > 100 µM | TGI (SK-MEL-5 melanoma): > 100 µM | TGI (RXF 393 renal): > 89 µM | TGI (SN12C renal): > 100 µM | TGI (CAKI-1 renal): > 100 µM | TGI (MCF7 breast): > 100 µM | TGI (U251 CNS): > 100 µM | TGI (SF-295 CNS): > 100 µM | TGI (HT29 colon): > 100 µM | TGI (HL-60(TB) leukemia): > 100 µM | TGI (TK-10 renal): > 100 µM | TGI (UACC-257 melanoma): > 100 µM | TGI (OVCAR-3 ovarian): > 100 µM | TGI (M14 melanoma): > 100 µM | TGI (SW-620 colon): > 100 µM | TGI (HCC-2998 colon): > 77.4 µM | TGI (NCI-H23 lung): > 100 µM | TGI (EKVX NSCLC): > 100 µM | TGI (NCI-H226 lung): > 100 µM | TGI (MDA-MB-231 breast): > 100 µM | TGI (BT-549 breast): > 100 µM | TGI (IGROV1 ovarian): > 100 µM | TGI (SK-MEL-28 melanoma): > 100 µM | TGI (COLO 205 colon): 32.8 µM | TGI (UO-31 renal): > 100 µM | TGI (HCT-116 colon): > 100 µM | TGI (OVCAR-5 ovarian): > 100 µM | TGI (SF-268 CNS): > 100 µM | TGI (SNB-75 CNS): > 100 µM | TGI (KM12 colon): > 100 µM | TGI (MDA-N): > 100 µM | TGI (ACHN renal): > 100 µM | TGI (LOX IMVI melanoma): > 100 µM | TGI (HOP-92 NSCLC): > 100 µM | TGI (OVCAR-8 ovarian): > 100 µM | TGI (NCI/ADR-RES ovarian): > 100 µM | TGI (T-47D breast): > 100 µM | TGI (MDA-MB-435): > 100 µM | TGI (SNB-19 CNS): > 100 µM | TGI (MOLT-4 leukemia): > 81.4 µM | TGI (UACC-62 melanoma): > 100 µM
